From ChEMBL document CHEMBL3272213, “Synthesis and pharmacology of novel anxiolytic agents derived from 2-[(dialkylamino)methyl-4H-triazol-4-yl] benzophenones and related heterocyclic benzophenones” (1976)

Key:
Type in all cases: functional
Mus musculus [1] = assay: Potentiation of ethanol-induced anxiolytic activity in ip dosed male albino CF-1 mouse; details: CF-1, ip
Mus musculus [2] = assay: Anxiolytic activity in ip dosed male albino CF-1 mouse assessed as inhibition of strychnine-induced lethality; details: CF-1, ip
Mus musculus [3] = assay: Anxiolytic activity in ip dosed male albino CF-1 mouse assessed as inhibition of nicotine-induced tonic extensor convulsions
Mus musculus [4] = assay: Anxiolytic activity in ip dosed male albino CF-1 mouse assessed as decrease in traction reflex
Mus musculus [5] = assay: Anxiolytic activity in ip dosed male albino CF-1 mouse assessed as inhibition of nicotine-induced death
Mus musculus [6] = assay: Anxiolytic activity in ip dosed male albino CF-1 mouse assessed as decrease in dish reflex
Mus musculus [7] = assay: Anxiolytic activity in ip dosed male albino CF-1 mouse assessed as inhibition of thiosemicarbazide -induced lethality; details: CF-1, ip
Mus musculus [8] = assay: Anxiolytic activity in ip dosed male albino CF-1 mouse assessed as inhibition of electroshock-induced convulsions; details: CF-1, ip
Mus musculus [9] = assay: Anxiolytic activity in ip dosed male albino CF-1 mouse assessed as inhibition of pentylenetetrazole-induced clonic convulsions; details: CF-1, ip
[10] = Mus musculus, CF-1, ip, read-out: ED50

| SMILES | ED50 (Mus musculus [1]) | ED50 (Mus musculus [2]) | ED50 (Mus musculus [3]; [10]) | ED50 (Mus musculus [4]; [10]) | ED50 (Mus musculus [5]; [10]) | ED50 (Mus musculus [6]; [10]) | ED50 (Mus musculus [7]) | ED50 (Mus musculus [8]) | ED50 (Mus musculus [9]) | ED50 (Mus musculus [3]) | ED50 (Mus musculus [4]) | ED50 (Mus musculus [5]) | ED50 (Mus musculus [6]) |
| --- | --- | --- | --- | --- | --- | --- | --- | --- | --- | --- | --- | --- | --- |
| CN(C)Cc1nnc(-c2ccco2)n1-c1ccc(Cl)cc1C(=O)c1ccccc1 | 25 mg/kg | 45 mg/kg | 16 mg/kg | 71 mg/kg | 16 mg/kg | 28 mg/kg | 8 mg/kg | > 100 mg/kg | 23 mg/kg | – | – | – | – |
| Cc1nnc(CN2CCCC2)n1-c1ccc(Cl)cc1C(O)c1ccccc1 (stereo in doubt; 21) | – | – | – | – | – | – | – | – | 14 mg/kg | 32 mg/kg | >200 mg/kg | 32 mg/kg | 5 mg/kg |
| Cc1nnc(CN2CCCC2)n1-c1ccc(Cl)cc1C(=O)c1ccccc1Cl | 6 mg/kg | 1 mg/kg | 1.3 mg/kg | 18 mg/kg | 1.8 mg/kg | 1 mg/kg | 1.1 mg/kg | > 100 mg/kg | 4 mg/kg | – | – | – | – |
| CN(C)CCn1nc(CN(C)C)n(-c2ccc(Cl)cc2C(=O)c2ccccc2)c1=O | 80 mg/kg | > 100 mg/kg | 6.3 mg/kg | 100 mg/kg | 6.3 mg/kg | 28 mg/kg | 9 mg/kg | > 100 mg/kg | 18 mg/kg | – | – | – | – |
| Cc1nnc(CN)n1-c1ccc(Cl)cc1C(O)c1ccccc1 (stereo not given) | 3.1 mg/kg | 28 mg/kg | 1.6 mg/kg | 9 mg/kg | 1.6 mg/kg | 2.8 mg/kg | 1.2 mg/kg | 71 mg/kg | 4 mg/kg | – | – | – | – |
| Cc1nnc(CN(C)C)n1-c1ccccc1C(=O)c1ccccc1Cl | > 100 mg/kg | > 50 mg/kg | 5 mg/kg | > 100 mg/kg | 5 mg/kg | 22 mg/kg | 3.6 mg/kg | > 100 mg/kg | 7 mg/kg | – | – | – | – |
| CN1C(=O)CN=C(c2ccccc2)c2cc(Cl)ccc21 [DIAZEPAM] | 1 mg/kg | 3.6 mg/kg | 0.11 mg/kg | 5 mg/kg | 0.11 mg/kg | 0.31 mg/kg | 0.2 mg/kg | 20 mg/kg | 0.8 mg/kg | – | – | – | – |
| CN(C)Cc1nccn1-c1ccc(Cl)cc1C(=O)c1ccccc1Cl | 2.5 mg/kg | > 50 mg/kg | 1 mg/kg | 11 mg/kg | 1.2 mg/kg | 2.2 mg/kg | 1.1 mg/kg | – | 1.8 mg/kg | – | – | – | – |
| CN(C)Cc1nn(CO)c(=O)n1-c1ccc(Cl)cc1C(=O)c1ccccc1Cl | 2 mg/kg | 12.5 mg/kg | 0.13 mg/kg | 6.3 mg/kg | 0.13 mg/kg | 1 mg/kg | 0.23 mg/kg | > 100 mg/kg | 0.32 mg/kg | – | – | – | – |
| Cc1nnc(CN(C)C)n1-c1ccc(Cl)cc1C(=O)c1ccccc1 | 1.1 mg/kg | 5 mg/kg | 0.5 mg/kg | 5 mg/kg | 0.5 mg/kg | 2.2 mg/kg | 0.3 mg/kg | 45 mg/kg | 1.1 mg/kg | – | – | – | – |
| Cc1nnc(CN2CCCC2)n1-c1ccc(Cl)cc1Cc1ccccc1 | – | – | 36 mg/kg | > 100 mg/kg | 36 mg/kg | 40 mg/kg | – | – | > 100 mg/kg | – | – | – | – |
| Cc1nnc(CN2CCCC2)n1-c1ccc(Cl)cc1C(O)c1ccccc1 (stereo in doubt; 20) | – | – | – | – | – | – | – | – | – | 8 mg/kg | >25 mg/kg | 8 mg/kg | 16 mg/kg |
| Cc1nnc(CN2CCOCC2)n1-c1ccc(Cl)cc1C(=O)c1ccccc1 | 4.4 mg/kg | 6.3 mg/kg | 0.45 mg/kg | 5 mg/kg | 0.5 mg/kg | 1.8 mg/kg | 0.8 mg/kg | > 50 mg/kg | 1.8 mg/kg | – | – | – | – |
| CNCc1nnc(C)n1-c1ccc(Cl)cc1C(=O)c1ccccc1 | 2 mg/kg | 3.2 mg/kg | 0.1 mg/kg | 2.5 mg/kg | 0.1 mg/kg | 0.8 mg/kg | 0.3 mg/kg | 63 mg/kg | 1.1 mg/kg | – | – | – | – |
| Cc1nnc(CN2CCCC2)n1-c1ccc(Cl)cc1C(=O)c1ccccc1 | 1.8 mg/kg | 4 mg/kg | 0.4 mg/kg | 4 mg/kg | 0.4 mg/kg | 1.3 mg/kg | 2 mg/kg | 89 mg/kg | 2 mg/kg | – | – | – | – |
| Cc1nnc(CN(C)C)n1-c1ccc(Cl)cc1C(=O)c1ccccc1Cl | 0.63 mg/kg | 11 mg/kg | 0.14 mg/kg | 3.2 mg/kg | 0.14 mg/kg | 0.25 mg/kg | 0.02 mg/kg | 50 mg/kg | 0.28 mg/kg | – | – | – | – |
| CN(C)Cc1nnc(C2CC2)n1-c1ccc(Cl)cc1C(=O)c1ccccc1Cl | 2.2 mg/kg | 5 mg/kg | 0.6 mg/kg | 7.1 mg/kg | 0.6 mg/kg | 1.1 mg/kg | 0.4 mg/kg | 79 mg/kg | 1 mg/kg | – | – | – | – |
| CCNCc1nnc(C)n1-c1ccc(Cl)cc1C(=O)c1ccccc1 | 0.6 mg/kg | 45 mg/kg | 0.2 mg/kg | 2.5 mg/kg | 0.2 mg/kg | 1 mg/kg | 0.6 mg/kg | 45 mg/kg | 0.5 mg/kg | – | – | – | – |
| NCC(=O)Nc1ccc(Cl)cc1C(=O)c1ccccc1 | 2.5 mg/kg | 22 mg/kg | 0.25 mg/kg | 32 mg/kg | 0.25 mg/kg | 5.6 mg/kg | 1.6 mg/kg | 29 mg/kg | – | – | – | – | – |
| Cc1nnc2n1-c1ccc(Cl)cc1C(c1ccccc1Cl)=NC2 [TRIAZOLAM] | 0.63 mg/kg | 0.23 mg/kg | 0.013 mg/kg | 0.6 mg/kg | 0.014 mg/kg | 0.028 mg/kg | 0.028 mg/kg | 32 mg/kg | 0.03 mg/kg | – | – | – | – |
| CCN(CC)CC(=O)Nc1ccc(Cl)cc1C(=O)c1ccccc1 | – | – | 23 mg/kg | > 200 mg/kg | 28 mg/kg | 100 mg/kg | – | – | 140 mg/kg | – | – | – | – |
| Cc1nnc2n1-c1ccc(Cl)cc1C(c1ccccc1)=NC2 [ALPRAZOLAM] | 0.16 mg/kg | 0.3 mg/kg | 0.02 mg/kg | 0.6 mg/kg | 0.02 mg/kg | 0.056 mg/kg | 0.16 mg/kg | 25.5 mg/kg | 0.2 mg/kg | – | – | – | – |
| Cc1nc(CN(C)C)n(-c2ccc(Cl)cc2C(=O)c2ccccc2Cl)c1CO | 18 mg/kg | > 25 mg/kg | 1 mg/kg | 18 mg/kg | 1 mg/kg | 3.5 mg/kg | 2 mg/kg | 100 mg/kg | 1.8 mg/kg | – | – | – | – |
| CNCc1nn(C)c(=O)n1-c1ccc(Cl)cc1C(=O)c1ccccc1.Cl | – | – | 0.45 mg/kg | 12.5 mg/kg | 0.56 mg/kg | 4 mg/kg | – | – | 5.6 mg/kg | – | – | – | – |
| CN(C)Cc1nnc(-c2ccncc2)n1-c1ccc(Cl)cc1C(=O)c1ccccc1Cl | – | > 50 mg/kg | 11 mg/kg | > 100 mg/kg | 11 mg/kg | 20 mg/kg | 4.4 mg/kg | > 100 mg/kg | – | – | – | – | – |
